Assay results taken from the METLIN SMRT retention time set (Domingo-Almenara et al. 2019).

Assay: gradient 5% acetonitrile 3 min, to 50% in 2 min, to 85% in 15 min, held 3 min, 100 µL/min
Conditions: column: Zorbax Extend-C18 2.1 x 50 mm; eluents: water / acetonitrile, 0.1% formic acid
Method in brief: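 Retention times of pure standards were taken from adduct peaks that were selected by computer and manually inspected. Over 3 months, mixtures of ~100 molecules were run by HPLC–quadrupole time-of-flight mass spectrometry in positive and negative ionization mode. The Zorbax Extend-C18 column (2.1 × 50 mm, 1.8 μm) ran at 100 μL/min in water and acetonitrile, each containing 0.1% formic acid, with 40 μL dead volume and 900 μL dwell volume.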

Row | SMILES | RP-LC retention time
1 | CC1(C(=O)NCCc2c[nH]c3ccccc23)CCCCC(=O)N1 (stereo not drawn) | 656 s
2 | O=C(CN1c2ccc(F)cc2-c2ccccc2S1(=O)=O)Nc1ccc(F)c(F)c1 | 974 s
3 | CCCN(CC1CCOC1)C(=O)NCCc1ccccc1 (stereo not drawn) | 791 s
4 | O=C(Cc1csc2nc(-c3ccccc3)cn12)NC1CCCc2ccccc21 (stereo not drawn) | 851 s
5 | CCN(CC)CCNC(=O)c1c(-c2ccccc2)c(-c2ccccc2)nn(C)c1=O | 646 s
6 | CCCNC(=O)C1CCCN(c2ncnc3c2nc2n3CCCCC2)C1 (stereo not drawn) | 650 s
7 | Cc1[nH]c(C(=O)N2CCCC(C(=O)NC(c3cccs3)C(C)C)C2)c(C)c1C(=O)OC(C)C (stereo not drawn) | 987 s
8 | COc1cc2c(cc1OC)C1C(C(=O)NCc3ccc4c(c3)OCO4)c3ccccc3C(=O)N1CC2 (stereo not drawn) | 753 s
9 | CC(=O)N1CCc2cc(-c3ccc(C(=O)NCCN4CCCCCC4)cc3)ccc21 | 576 s
10 | COc1ccc(NC(=O)c2cn3c(n2)CSCC3)cc1OC | 631 s
11 | COc1ccc(Nc2ccc3c(=O)c(-c4ccccc4OC)c(C)oc3c2)cc1 | 947 s
12 | O=C(NCc1ccc(F)cc1)N1CCCC1c1nc(-c2ccccc2)no1 (stereo not drawn) | 914 s
13 | O=C(NCc1ccc(Br)cc1)c1cn2nc(Cl)ccc2n1 | 882 s
14 | CCc1ccc(-n2nc(C)c3c(C(F)(F)F)cc(OCC(=O)NCc4ccco4)nc32)cc1 | 1300 s
15 | N#Cc1ccc(NC(=O)Cn2cccc(-c3nc(-c4ccc(Br)cc4)no3)c2=O)cc1 | 952 s
16 | O=C(NCCc1c[nH]c2ccc(Cl)cc12)c1sc2ncccc2c1-n1cccc1 | 1060 s
17 | CCCC(=O)Nc1cccc(NC(=O)c2ccccc2Br)c1 | 863 s
18 | O=C(COc1ccccc1[N+](=O)[O-])N(Cc1ccccc1)Cc1ccccc1 | 1000 s

Row | SMILES | RP-LC retention time
19 | O=C(NCc1cc(F)cc(F)c1)c1c(O)c2cccnc2n(-c2cccc(F)c2)c1=O | 1200 s
20 | Fc1ccc(-n2cc(-c3noc(-c4cccc(F)c4)n3)nn2)cc1 | 1050 s
21 | CN1CCN(C(CNC(=O)c2ccc(Cl)cc2)c2ccc(N(C)C)cc2)CC1 (stereo not drawn) | 557 s
22 | O=C(Nc1cccc(Cl)c1)c1nnc(COCC(=O)N2CCN(c3ccccn3)CC2)s1 | 657 s
23 | CCOC(=O)c1nc(NCc2cccc(OC)c2)c2ccccc2n1 | 754 s
24 | Brc1ccc(CSc2nnc(-c3ccccc3)o2)cc1 | 1180 s
25 | Cn1cc(-c2ccncc2)cc1C(=O)NCc1ccccc1Br | 655 s
26 | CCOc1nc2ccccc2nc1N1CCCC(C(=O)NC2CCCCCC2)C1 (stereo not drawn) | 1250 s
27 | CC(C)CC(=O)N1CCC2(CC1)NCc1ccccc1-n1ccnc12 | 594 s
28 | N#Cc1c(C(F)(F)F)cc(-c2ccccc2)nc1SCCC(N)=O | 839 s
29 | COc1cccc(C2=NN(C(C)=O)C(c3cccc(Br)c3)O2)c1OC(C)=O (stereo not drawn) | 1070 s
30 | CSc1ccc(CNC(=O)C2CCN(c3cncnc3N3CCCCC3)CC2)cc1 | 734 s
31 | CCCc1noc(-c2nnn3c2COC(c2ccc(OC)cc2)C3)n1 (stereo not drawn) | 1010 s
32 | CCc1nc(-c2csc(S(=O)(=O)N3CCC(C(=O)NC4CCCCCC4)CC3)c2)no1 | 997 s
33 | O=C(Cc1ccccc1Br)N1CCN(Cc2nncn2C2CCCCC2)CC1 | 642 s
34 | O=C(Nc1ccccc1)N1C[C@H]2C[C@H](C1)[C@H]1CCCC(=O)N1C2 | 622 s
35 | O=C(Nc1ccc(C(=O)N2CCC(C(=O)NC3CCCCCC3)CC2)cc1)c1ccccc1Cl | 839 s

Other lines, results leading:

Row | RP-LC retention time | SMILES
36 | 811 s | CCSc1nnc(-c2nn(C)c3c2CN(C(=O)c2cc(C)ccc2C)CC3)n1C
37 | 708 s | CCCNC(=O)C1CCN(S(C)(=O)=O)c2ccccc2O1 (stereo not drawn)
38 | 678 s | O=C(NCCCn1nc(-c2ccco2)ccc1=O)Nc1ccc2c(c1)OCO2
39 | 705 s | O=C(Cn1nc2c(N3CCCCCC3)nccn2c1=O)Nc1ccc(F)cc1F
40 | 755 s | CC(C)Cn1cc(CCNC(=O)Nc2c(F)cccc2F)c2cccnc21
41 | 589 s | CCC1CCCCN1C(=O)c1cnc2nc(C)ccc2c1Nc1ccc(S(N)(=O)=O)cc1 (stereo not drawn)
42 | 679 s | CCc1noc(NC(C)=O)c1-c1ccc(OC)c(S(=O)(=O)NC2CC2)c1
43 | 647 s | CN1CCN2c3ncccc3Cc3ccccc3[C@@H]2C1
44 | 805 s | CC(C)c1ccc(S(=O)(=O)N2CCC(C(=O)NCc3cscn3)CC2)cc1
45 | 1230 s | CCC(C)(C)NS(=O)(=O)c1cccc(-c2nc(-c3ccccc3)no2)c1
46 | 602 s | CCN1CCN(c2ccc3nnc(CCc4nc(-c5ccc(F)cc5)no4)n3n2)CC1
47 | 867 s | O=C(Nc1ccccc1Cl)N1CCC(N2CCN(Cc3ccccc3)C(=O)C2=O)CC1
48 | 618 s | Cn1c(N2CCCC(C(=O)N3CCN(c4ncccn4)CC3)C2)cc(=O)n(C)c1=O (stereo not drawn)
49 | 784 s | Cc1c(Cl)cccc1NC(=O)C1CCCN(c2ccc(-n3cccn3)nn2)C1 (stereo not drawn)
50 | 1010 s | Cc1ccc2c(c1)N(Cc1ccccc1)N=C(C(=O)N1CCCCC1)S2(=O)=O
51 | 667 s | Cc1ccc(C(=O)N2CCN(c3nnc4cccc(C)n34)CC2)cc1F
52 | 659 s | CC1=C(C(=O)N2CCOCC2)C(c2ccc(F)c(Br)c2)C2=C(CCCC2=O)N1 (stereo not drawn)
53 | 621 s | c1ccc2c(CCNc3nc(N4CCCC4)c4n[nH]nc4n3)c[nH]c2c1
54 | 1140 s | CCOc1ccccc1C(=O)Nc1cccn2nc(CC)nc12
55 | 890 s | CC(C)c1nnc(-c2ccc(S(=O)(=O)N3CCCCC3)o2)o1
56 | 849 s | N#Cc1ccc(-c2nc(-c3ccc4c(c3)nnn4CCC(=O)N3CCCC3)no2)c(F)c1
57 | 947 s | COc1ccc(-c2noc(C3CC(=O)N(c4ccc(OC)c(Cl)c4)C3)n2)cc1 (stereo not drawn)
58 | 768 s | O=C1COc2cc(S(=O)(=O)N3CCCC3C(=O)Nc3ccccc3)c(Cl)cc2N1 (stereo not drawn)
59 | 670 s | Cc1nnc2ccc(S(=O)(=O)Nc3ccc(F)cc3)cn12
60 | 732 s | O=C(NCCS(=O)(=O)N1CCc2ccccc2C1)C1CC(=O)N(c2ccc(F)cc2)C1 (stereo not drawn)
61 | 942 s | Cc1ccc(-c2cn3c(CC(=O)NCCC4=CCCCC4)csc3n2)cc1C
62 | 802 s | Cc1cc(=O)n(CC(=O)Nc2ccccc2F)c(N2CCc3ccccc3C2)n1

Row | RP-LC retention time | SMILES
63 | 598 s | Cn1cc(CCN2CCN(C(=O)c3ccccc3Br)CC2)c2cccnc21
64 | 849 s | Cc1ccc(Cn2nc3c(S(=O)(=O)N4CCOCC4)cccn3c2=O)c(C)c1
65 | 703 s | CSc1ccc(CCNC(=O)CCC(=O)N2CCCn3nc(C)cc32)cc1
66 | 1030 s | Cc1cccc(Sc2nccnc2N2CCCC(C(=O)NCc3ccc4c(c3)OCO4)C2)c1 (stereo not drawn)
67 | 887 s | Cc1ccc(C(=O)N2CCC(COc3ccc(C(=O)NC4CC4)cc3)CC2)cc1C
68 | 780 s | CCN1CCCn2cc(S(=O)(=O)NCc3cccc(C)c3)cc2C1=O
69 | 1030 s | O=C1C2N=NN(Cc3nc(-c4ccc(Cl)cc4)no3)C2C(=O)N1c1ccc(F)cc1 (stereo not drawn)
70 | 1020 s | COc1ccc(-c2cc3c(=O)n(Cc4nc(-c5ccc(OC)cc5OC)oc4C)ccn3n2)cc1
71 | 626 s | CC(=O)N1c2ccc(S(=O)(=O)N3CCCCC3)cc2CC1C(=O)NCCN1CCCCC1 (stereo not drawn)
72 | 841 s | Cc1c(Cl)cccc1Nc1ncccc1C(=O)O
73 | 668 s | Cc1cc2cc(CNC(=O)NC3CC(=O)N(c4ccccc4)C3)ccc2[nH]1 (stereo not drawn)
74 | 765 s | O=C(CN1C(=O)COc2ccc(C(=O)N3CCCC3)cc21)NCCc1ccc(Cl)cc1
75 | 840 s | CSc1cccc(NC(=O)Cn2c(N3CCc4ccccc4C3)nc(C)cc2=O)c1
76 | 720 s | COc1ccc(S(=O)(=O)N2CCCC(C(=O)NC(C)C)C2)cc1OC (stereo not drawn)
77 | 750 s | Nc1cc(C2CCN(C(=O)Nc3ccc(F)c(Cl)c3)CC2)no1
78 | 972 s | Cc1cc2nn(CC(=O)Nc3ccc(F)cc3)c(=O)n2c(Nc2ccc(F)cc2)n1
79 | 875 s | Cc1ccc2[nH]cc(CCN3CC(C(=O)NC4CCCCCC4)CC3=O)c2c1 (stereo not drawn)
80 | 871 s | Cc1cc(OCC(=O)Nc2cccc(F)c2)nc(N2CCN(c3ccccc3)CC2)n1
81 | 798 s | COC(=O)c1c(C)[nH]c(C(=O)N2CCCC(C(=O)NCc3cccc(Cl)c3)C2)c1C (stereo not drawn)
82 | 735 s | O=C(NCc1ccc2c(c1)OCO2)C1CCCN(c2nnc3ccc(Cl)cn23)C1 (stereo not drawn)
83 | 840 s | O=S(=O)(c1cccc(-c2nc(-c3ccccc3)no2)c1)N1CCN(C2CCCCC2)CC1
84 | 1120 s | CCc1ccc(-n2ncc3c(=O)n(Cc4nc(-c5ccc(OC)cc5)no4)cnc32)cc1
85 | 1120 s | CCCN1C(=O)c2cc(S(=O)(=O)Nc3cc(F)ccc3C)ccc2Oc2cccnc21
86 | 659 s | CCN1CCCn2nc(C3CCN(C(=O)c4cncc(Br)c4)CC3)cc2C1=O
87 | 767 s | Cc1ccc(C)c(NC(=O)C2CCN(S(=O)(=O)c3cn(C(C)C)cn3)CC2)c1
88 | 750 s | O=C1CCCc2cc(S(=O)(=O)N3CCCC3C(=O)N3CCN(c4ccccc4)CC3)ccc2N1 (stereo not drawn)
